Each structure is given as a SMILES string. Converted amounts (≈) assume the structure as drawn. Bounds are passed on as bounds.

A word on the solubility (kinetic): it is the concentration staying in solution when a stock, usually in DMSO, is diluted into the medium.

The conditions of the data set: buffer; pH 7.4; 200.0 µM.
The compound `CC(C)NC(=O)NC(=O)COC(=O)c1cc[n+]([O-])cc1` returned a solubility (kinetic) of more than 42.2 µg/mL.

`CCOc1ccc(N2C(=O)CC(C(C)c3ccccc3)C2=O)cc1` (configuration not stated) had a kinetic solubility of 5.7 µg/mL (≈ 17.6 µM).

Take `COc1ccc(NC(=S)NC2CC3CCC2C3)c(OC)c1` (configuration not stated): the kinetic solubility worked out at 14.8 µg/mL (≈ 48.3 µM).

Compound `Cc1ccc(NC(=O)C2CCN(C(=O)c3cccs3)CC2)c(C)c1` gave a kinetic solubility of 36.6 µg/mL (≈ 107 µM).

`C=C(C)Cn1c(N2CCCC2)nc2c1c(=O)n(C)c(=O)n2C` gave a kinetic solubility of 33.6 µg/mL (≈ 111 µM).

For `Nc1nc(F)cc(N2CCCCCC2)n1`, the kinetic solubility is more than 31.5 µg/mL.

In turn, `Cc1ccc(CN2CCCN(C)CC2)c(C)c1` showed a solubility (kinetic) of 23.4 µg/mL (≈ 101 µM).

In the case of `CC(=O)CC1(O)C(=O)Nc2ccccc21` (configuration not stated), the solubility (kinetic) is 27.6 µg/mL (≈ 134 µM). The solubility kinetic values of the last two compounds are within 1.5-fold of each other.

`CCCC1(c2ccccc2)NC(=O)NC1=O` (configuration not stated) returned a solubility (kinetic) of more than 32.7 µg/mL.

`CN(C(=O)/C=C/c1cnc2ccccc2c1)C1CCCCC1` had a kinetic solubility of more than 44.2 µg/mL.

For the compound `CS/C(=C(/C#N)S(=O)(=O)c1ccc(Cl)cc1)N1CCOCC1`, the kinetic solubility is 49.7 µg/mL (≈ 138 µM).

`CCCNC(=O)COC(=O)/C=C/c1ccc(C)o1` had a solubility (kinetic) of more than 37.7 µg/mL.

On to `Nc1c(C(=O)O)cnn1-c1ccc([N+](=O)[O-])cc1`, for which the solubility (kinetic) was more than 37.2 µg/mL.

`Cc1[nH]c2ccccc2c1CN1CCN(c2ccccn2)CC1` displayed a solubility (kinetic) of 44.4 µg/mL (≈ 145 µM).

Consider `O=C(NC1CCN(C(=S)NCCc2ccccc2)CC1)C1CC1`, for which the kinetic solubility was 10.7 µg/mL (≈ 32.3 µM). Against the preceding compound, the solubility kinetic is about 4.1-fold lower.

`CCN(CC)c1cccc(OC(=O)c2cccnc2Cl)c1` had a kinetic solubility of 6.8 µg/mL (≈ 22.3 µM). This solubility kinetic is about 1.6-fold lower than that of the compound before.

As to `CCOC(=O)c1[nH]cnc1C(=O)Nc1ccccc1OC`, the solubility (kinetic) came to 10.3 µg/mL (≈ 35.6 µM).

Consider `CN(Cc1ccccc1)C(=O)COC(=O)/C=C/c1ccco1`, for which the solubility (kinetic) was more than 44.9 µg/mL.

With `O=C(COC(=O)Cc1ccc(Br)cc1)Nc1ccc(Cl)cn1`, the solubility (kinetic) worked out at 3.9 µg/mL (≈ 10.2 µM).

Compound `COC(=O)c1nc[nH]c1C(=O)OC` registered a solubility (kinetic) of more than 27.6 µg/mL.

Compound `Cc1ccc(CN2C(=O)CSC(C)C2=O)cc1` (configuration not stated) showed a solubility (kinetic) of more than 37.4 µg/mL.

Compound `Cc1nc(SCC(=O)N2CCN(c3ccccn3)CC2)c(C#N)c(C)c1C` returned a solubility (kinetic) of 41.8 µg/mL (≈ 110 µM).

With `O=C(NC(c1ccccc1)c1ccccc1)N1CCOCC1`, the solubility (kinetic) was more than 44.5 µg/mL.

As for `O=[N+]([O-])c1ccc(N2CCN(c3ccccc3)CC2)nc1`, the solubility (kinetic) is 0.6 µg/mL (≈ 2.11 µM).

As to `Cc1ccc(NC(=O)COC(=O)c2ccc(NC(=O)CC#N)cc2)cc1S(=O)(=O)N1CCOCC1`, the solubility (kinetic) is 23.6 µg/mL (≈ 47.1 µM).

`O=C(/C=C/c1cccs1)NC1CC1` registered a kinetic solubility of more than 29 µg/mL.

For the compound `Cc1ccc(NCc2ccc(O)c3ncccc23)cc1`, the solubility (kinetic) is 5 µg/mL (≈ 18.9 µM).

For the compound `Cc1[nH]c2ccccc2c1SCC(=O)Nc1nccs1`, the solubility (kinetic) was 4.8 µg/mL (≈ 15.8 µM).

With `Cc1cc(C)cc(OCC(=O)Nc2cnn(CCCC(=O)O)c2)c1`, the kinetic solubility is more than 49.7 µg/mL.

`COc1ccc(CCn2c([S-])nc3ccccc3c2=O)cc1.[Na+]` displayed a solubility (kinetic) of 1.5 µg/mL.

Turning to `Cc1noc(C)c1C(=O)Nc1cc(Cl)ccc1N1CCOCC1`, the solubility (kinetic) came to 13.5 µg/mL (≈ 40.2 µM). Against the preceding compound, the solubility kinetic is about 9-fold higher.

`COC(=O)c1nc(-c2ccccc2)oc1N1CCOCC1` had a solubility (kinetic) of more than 43.2 µg/mL.

In turn, `CN1C(=O)C(=Cc2cccnc2)C(=O)N(C)C1=O` yielded a kinetic solubility of 32.3 µg/mL (≈ 132 µM).

The compound `CCOC(=O)N1CCN(C(=O)c2cc3cc(C)ccc3[nH]2)CC1` gave a kinetic solubility of 41.6 µg/mL (≈ 132 µM). The solubility kinetic values of the last two compounds are within 1.5-fold of each other.

`COc1ccc(C2C(C(C)=O)=C(O)C(=O)N2c2ccccn2)cc1` (configuration not stated) returned a solubility (kinetic) of more than 48.7 µg/mL.

Consider `CC(OC(=O)CSc1ccc(F)cc1)C(=O)NC1(C#N)CCCCC1` (configuration not stated), for which the solubility (kinetic) amounted to 42.2 µg/mL (≈ 116 µM).

Turning to `CC(OC(=O)Cc1ccc(Br)cc1)C(=O)NC1CCCC1` (configuration not stated), the kinetic solubility came out at 48.7 µg/mL (≈ 137 µM).

`O=[N+]([O-])C1=CC=C2C(=NC3(CCCCC3)N2O)C1=NCCc1ccccc1` came in with a kinetic solubility of 1.4 µg/mL (≈ 3.82 µM). Against the preceding compound, the solubility kinetic is about 35-fold lower.

In the case of `O=C(CSc1nncc2ccccc12)Nc1cccc(C(=O)O)c1`, the solubility (kinetic) was more than 50.9 µg/mL.

Take `Cc1ccc(NC(=O)NCc2cccnc2)cc1Cl`: the solubility (kinetic) turned out to be 39.7 µg/mL (≈ 144 µM).

As for `CN(C)C(CNc1ncnc2ccccc12)c1c(F)cccc1Cl` (configuration not stated), the kinetic solubility was determined as 49.4 µg/mL (≈ 143 µM).

For `Cc1ccc(NC(=O)CCCc2ccccc2)nc1`, the solubility (kinetic) is 36.6 µg/mL (≈ 144 µM).

In turn, `COc1ccc(CN2CCN(C3CCC3)CC2CCO)cc1C` (configuration not stated) yielded a kinetic solubility of 42.3 µg/mL (≈ 133 µM).

With `O=C1CSC(=S)N1`, the kinetic solubility is more than 20 µg/mL.

For the compound `Cc1ccccc1N1CCN(CCCN2C(=O)C3CCCCN3C2=O)CC1` (configuration not stated), the kinetic solubility amounted to 40.7 µg/mL (≈ 110 µM).

Take `COc1ccc(NC(=O)CCn2cccc2)c(OC)c1`: the solubility (kinetic) is 36.1 µg/mL (≈ 132 µM). This solubility kinetic and that of the compound before are within 1.5-fold of each other.

In turn, `CCSc1nc(O)cc(=O)n1CC` showed a kinetic solubility of more than 30 µg/mL.

The compound `Cc1c(C(=O)Nc2cccc(S(=O)(=O)N3CCOCC3)c2)oc2ccccc12` yielded a kinetic solubility of 2.3 µg/mL (≈ 5.74 µM).

In the case of `CCN(Cc1ccncc1)C(=O)c1ccc(C)c(S(=O)(=O)N2CCCCC2)c1`, the kinetic solubility was more than 60.2 µg/mL.

The compound `CCn1cc(C(=O)OC)c(=O)c2ccc(C)nc21` showed a kinetic solubility of 36.4 µg/mL (≈ 148 µM).

On to `COc1ccc2c(-c3ccccc3)cc(=S)[nH]c2c1`, for which the solubility (kinetic) was determined as 2.4 µg/mL (≈ 8.98 µM).

Take `CCCCNC(=O)OCCSCCS(=O)(=O)c1ccc(Cl)cc1`: the solubility (kinetic) was determined as 0.9 µg/mL (≈ 2.37 µM).

The record behind these values is PubChem BioAssay AID1996.
